Each compound was assayed on SKVLB (Ovarian; multidrug resistant) (assay: In vitro cytotoxicity, microculture tetrazolium (MTT) assay, SKVLB). Details: ratio SKVLB / SKOV3.
Format: cell-based, human
Description: In Vitro Cytotoxicity--Microculture Tetrazolium Assay
The microculture tetrazolium assay was used to test in vitro cytotoxicity. This assay is described in Plumb, J. A. et al., 1989 Cancer Research 49, 4435-4440, which is herein incorporated by reference. The cytotoxicity of compounds towards tumor cells is measured in vitro using the assay. This assay method is based upon the ability of live, but not dead cells to reduce the yellow water soluble dye 3-(4;5-dimethylthiazol-2-yl)-2,5-diphenyltetrazolium bromide (MTT) to its water insoluble purple formazan product.
Human Tumor Cell lines, used were:
SKVLB (Ovarian; multidrug resistant)--Dr. V. Ling, Ontario
The cells were maintained in exponential growth in culture in minimal essential media (MEM) supplemented with non-essential amino acids, and containing 15% (v/v) fetal bovine serum, 5 mM L-glutamine, 1 mM sodium pyruvate, and 0.1 U/ml insulin. All cell lines were grown at 37° C. in an atmosphere of 5% CO2 in air.
Test compounds: 20 mM in DMSO and diluted to a final concentration of 200 μM in culture medium before use.
The following is the generic description of the assay method. It should be noted that although the conditions described work well with the cells listed above, the initial plating density and the MTT concentration used should be verified for each new cell line used to test compounds.
For each assay, doxorubicin is included as an inter-assay standard. This allows us to monitor the behaviour of the assay in general, and in particular, to check that the SKVLB line has maintained its resistant phenotype.
The plate layout is done in the following manner: The assays are carried out in 96-well (8 well×12 well) microtiter plates. Serial dilutions of the compound are tested along the length of the plate. A 1:3 serial dilution of compound in culture medium covers a concentration range from 100 μM to 1.7 nM. Each concentration of compound is tested in quadruplet, allowing two compounds to be tested per plate. Wells containing no cells (blank) and cells with no test compound (control) are included on each plate.
Cells are plated out in 100 μl of culture medium in the microtiter plates at a density of around 1,500-4,000 cells per well. The plates are incubated overnight to allow the cells to become adherent after which the test compound is added (100 μl of appropriate dilution per well). The cells are incubated with test compound at 37° C. for 48 h after which the compound is replaced with fresh medium. After a further 48 h incubation at 37° C., 50 μl of MTT solution (2 mg/ml) is added to each well. The plates are incubated in the dark for 4 h at 37° C. after which the medium is removed. The MTT formazan product is extracted from the cells by the addition of 200 μl DMSO followed by 50 μl of Sorensen's buffer. The plates are shaken briefly and the absorbance at 570 nm is read using a Molecular Devices UV max plate reader. Curves are fit to the MTT assay data using a four parameter logistic equation, and the data are normalized to fit a 0% to 100% survival scale.

Structure (SMILES)	VLB/OV3
CC(=O)O[C@H]1[C@@H](I)[C@H](O[C@H]2O[C@H](C(C)=O)CC3=C2C(=O)c2ccccc2C3=O)O[C@@H](C)[C@H]1OC(C)=O [BCH1666, (1'S,1R,3S)-methyl-(1-[2',6'-dideoxy-3'-4'-diacetoxy-2'-iodo-L-lyxohexopyranose]-5,10-dioxo-3,4,5,10-tetrahydronaphtho [2,3-c]-pyran-3-yl) ketone]	0.75
CC(=O)[C@H]1CC2=C(C(=O)c3ccccc3C2=O)[C@H](O[C@H]2C[C@H](NC(=O)C(F)(F)F)[C@H](Br)[C@H](C)O2)O1 [BCH2047, (1S,3R,1'S)-Methyl-(1-[2',3',4',6'-tetradeoxy-3'-trifluoroacetamido-4'-bromo-L-lyxohexopyranose]-5,10-dioxo-3,4,5,10-tetrahydronaphthaleno-[2,3-c]pyran-3-yl) ketone]	31
CC[C@H]1CC2=C(C(=O)c3ccccc3C2=O)[C@H](O[C@H]2C[C@H](NC(=O)C(F)(F)F)[C@H](O)[C@H](C)O2)O1 [BCH2020, (1'S,1S,3S)-5,10-dioxo-3-ethyl-1-(2',3',6'-trideoxy-3'-trifluoroacetamido-L-lyxohexopyranose)-3,4,5,10-tetrahydro-1H-naphtho-[2,3-c]-pyran]	2.31
CC(=O)[C@@]1(C)CC2=C(C(=O)c3ccccc3C2=O)[C@H](O[C@H]2C[C@H](NC(=O)C(F)(F)F)[C@H](O)[C@H](C)O2)O1 [BCH2082, (1'S,1S,3R)-1-(3'-trifluoroacetamido-2',3',6-trideoxy-L-lyxohexopyranose)-3-acetyl-3-methyl-5,10-dioxo-4,5,10-trihydro-1H-naphtho-[2,3-c]-pyran]	3
COC1OC(C(C)=O)=CC2=C1C(=O)c1ccccc1C2=O (stereo not shown) [BCH2129, 3-Aceto-5,10-dioxo-1-methoxy-5,10-dihydro-1H-naphtho-(2,3-c)-pyran]	2.95
CC(=O)[C@]1(C)CC2=C(C(=O)c3ccccc3C2=O)[C@H](O[C@H]2C[C@H](NC(=O)C(F)(F)F)[C@H](O)[C@H](C)O2)O1 [BCH2090, (1'S,1S,3S)-1-(3'-trifluoroacetamido-2',3',6'-trideoxy-L-lyxohexopyranose)-3-acetyl-3-methyl-5,10-dioxo-4,5,10-trihydro-1H-naphtho-[2,3-c]-pyran]	3.29
COC(=O)C1(C(=O)OC)CC2=C(CO1)C(=O)c1ccccc1C2=O [BCH1665, 3,3-bis-(methoxycarbonyl)-5,10-dioxo-3,4,5,10-tetrahydro-1H-naphtho-[2,3-c]-pyran]	1.14
CC(=O)[C@@H]1CC2=C(C(=O)c3ccccc3C2=O)[C@@H](O[C@H]2C[C@H](NC(=O)C(F)(F)F)[C@H](I)[C@H](C)O2)O1 [BCH1620, (1'-S,1-R,3-S)-methyl-(1-[2',3',6'-trideoxy-3'-trifluoroacetamido-4'-iodo-L-lyxohexopyranose]-5,10-dioxo-3,4,5,10-tetrahydronaphtho-[2,3-c]-pyran-3-yl)-ketone]	51.31
CC(=O)O[C@@H]1[C@H](C)O[C@@H](O[C@H]2O[C@H](C(C)=O)CC3=C2C(=O)c2ccccc2C3=O)C(Br)[C@@H]1OC(C)=O (stereo partly drawn) [BCH2100, (1'S,1R,3S)-methyl-(1-[2',6'-dideoxy-3',4'-diacetoxy-2'-bromo-L-lyxohexopyranose]-5,10-dioxo-3,4,5,10-tetrahydronaphtho-[2,3-c]-pyran-3-yl) ketone]	3.04
CC(=O)[C@@H]1CC2=C(C(=O)c3ccc(O)cc3C2=O)[C@@H](O[C@H]2C[C@H](NC(=O)C(F)(F)F)[C@H](O)[C@H](C)O2)O1 [BCH1181, (1'S,1R,3S)-Methyl (5,10-dioxo-1-(2',3',6'-trideoxy-3'-trifluoroacetamido-L-lyxohexopyranose)-7-hydroxy-3,4,5,10-tetrahydro [2,3-C]pyran-3-yl) ketone]	3.75

From patent US5736523A, “Antineoplastic heteronapthoquinones” (Biochem Pharma Inc., priority 1995, dated 1998)
